Experiment: xn = mol fraction of the nth substance listed
Conditions: Liquid, Vibrating tube method

CC1=CC[C@H]2C[C@@H]1C2(C)C [(S)-2-pinene] + C=C1CCC2CC1C2(C)C
mass density [kg/m3]
Conditions | x1 = 0.1044 | x1 = 0.1926 | x1 = 0.3036 | x1 = 0.3949 | x1 = 0.502 | x1 = 0.6052 | x1 = 0.7022 | x1 = 0.7983 | x1 = 0.9028 | x1 = 1
328.15 K, 20000 kPa | 857.2 | 855.9 | 855 | 853.7 | 852.5 | 851.3 | 850.2 | 849.1 | 847.9 | 846.7
328.15 K, 25000 kPa | 860.6 | 859.5 | 858.3 | 857.2 | 856.1 | 854.9 | 853.8 | 852.7 | 851.5 | 850.4
328.15 K, 30000 kPa | 864.1 | 863.1 | 862 | 860.8 | 859.6 | 858.5 | 857.4 | 856.3 | 855.1 | 854
328.15 K, 35000 kPa | 867.5 | 866.6 | 865.4 | 864.3 | 863.1 | 861.9 | 860.9 | 859.8 | 858.6 | 857.5
328.15 K, 40000 kPa | 870.8 | 870 | 868.9 | 867.7 | 866.6 | 865.5 | 864.3 | 863.4 | 862.1 | 861.1
343.15 K, 20000 kPa | 846.7 | 845.5 | 844.3 | 843.2 | 841.9 | 840.7 | 839.4 | 838.3 | 837 | 835.9
343.15 K, 25000 kPa | 850.5 | 849.3 | 848.1 | 847 | 845.7 | 844.6 | 843.3 | 842.1 | 840.9 | 839.7
343.15 K, 30000 kPa | 854.2 | 853 | 851.9 | 850.9 | 849.6 | 848.5 | 847.2 | 846.2 | 844.9 | 843.8
343.15 K, 35000 kPa | 857.7 | 856.6 | 855.5 | 854.5 | 853.3 | 852.2 | 851 | 850 | 848.7 | 847.7
343.15 K, 40000 kPa | 861.3 | 860.2 | 859.1 | 858.1 | 857 | 855.9 | 854.7 | 853.7 | 852.4 | 851.4
358.15 K, 20000 kPa | 835.9 | 834.6 | 833.3 | 832.2 | 831 | 829.8 | 828.5 | 827.3 | 826.1 | 825
358.15 K, 25000 kPa | 839.8 | 838.6 | 837.4 | 836.3 | 835 | 833.9 | 832.7 | 831.5 | 830.3 | 829.2
358.15 K, 30000 kPa | 843.7 | 842.5 | 841.3 | 840.3 | 839 | 838 | 836.7 | 835.6 | 834.4 | 833.3
358.15 K, 35000 kPa | 847.6 | 846.4 | 845.2 | 844.2 | 843 | 841.8 | 840.7 | 839.6 | 838.4 | 837.4
358.15 K, 40000 kPa | 851.5 | 850.4 | 849.1 | 848.2 | 847.1 | 846 | 844.8 | 843.8 | 842.6 | 841.5
